The results in this text go back to patent US9676714B2, “Sulfonylindole derivatives and method for preparing the same” (Daewoong Pharmaceutical Co., Ltd., priority 2013, dated 2017).

Counter-ions that a name gives are not always drawn.

The subject of experiment [1] is basal gastric acid secretion. Nature of the experiment: Inhibitory effect on the basal gastric acid secretion in pylorus-ligated rats (Shay's rat model). It is filed as in vivo, Sprague Dawley (SD) rats. To be noted: 5 h, male SD rats, 3 mg/kg/2 ml into the duodenum, five hours after the ligation, total gastric acid secretion vs control group. As to the method: 3) Inhibitory Effect on the Basal Gastric Acid Secretion in Pylorus-Ligated Rats
Assays for determining inhibitory effect of the compounds of the present invention on the basal gastric acid secretion was performed according to Shay's rat model (Shay, H., et al., 1945, gastroenterology, 5, p. 43-61). Male Sprague Dawley (SD) rats with a body weight in the range of 180˜220 g were divided into test (n=5) and control groups (n=5), and fasted for 18 hours with free access to water. Under isoflurane anesthesia, the abdomens of the rats were incised and then the pylorus was ligated. After the ligation, the control groups were administered with only 10% ethanol, 20% polyethylene glycol (PEG) 400, and 10% aqueous Cremophor solution through the duodenum, and the other groups were administered with test compounds suspended in 10% ethanol, 20% PEG 400, and 10% aqueous Cremophor solution at a concentration of 3 mg/kg/2 ml into the duodenum. Five hours after the ligation, the experimental animals were euthanized and their stomach contents were collected. The thus obtained contents were centrifuged at 4,000×g for 10 minutes, and the supernatant was recovered to obtain gastric juice therefrom. The amount of the gastric juice and its pH were measured. The acidity of the gastric juice was determined by 0.1 N-NaOH volume (ueq/mL) for automatic titration of gastric acid to pH 7.0. The total acid output was obtained by multiplying the gastric acidity by the amount of gastric juice. Inhibition Activity (%) of Test Compounds=(total gastric acid secretion in control group−total gastric acid secretion in groups treated with test compounds)/total gastric acid secretion in control group×100

The target of experiment [2] is T1, proton pump (H+/K+-ATPase) (Sus scrofa, UniProt P19156).
T1 construct: Gastric vesicles were prepared from hog stomach via centrifugal separation; from tissue; host or cells: hog stomach (gastric vesicles, method of Rabon et al. 1988)
T1 sequence (P19156 whole entry): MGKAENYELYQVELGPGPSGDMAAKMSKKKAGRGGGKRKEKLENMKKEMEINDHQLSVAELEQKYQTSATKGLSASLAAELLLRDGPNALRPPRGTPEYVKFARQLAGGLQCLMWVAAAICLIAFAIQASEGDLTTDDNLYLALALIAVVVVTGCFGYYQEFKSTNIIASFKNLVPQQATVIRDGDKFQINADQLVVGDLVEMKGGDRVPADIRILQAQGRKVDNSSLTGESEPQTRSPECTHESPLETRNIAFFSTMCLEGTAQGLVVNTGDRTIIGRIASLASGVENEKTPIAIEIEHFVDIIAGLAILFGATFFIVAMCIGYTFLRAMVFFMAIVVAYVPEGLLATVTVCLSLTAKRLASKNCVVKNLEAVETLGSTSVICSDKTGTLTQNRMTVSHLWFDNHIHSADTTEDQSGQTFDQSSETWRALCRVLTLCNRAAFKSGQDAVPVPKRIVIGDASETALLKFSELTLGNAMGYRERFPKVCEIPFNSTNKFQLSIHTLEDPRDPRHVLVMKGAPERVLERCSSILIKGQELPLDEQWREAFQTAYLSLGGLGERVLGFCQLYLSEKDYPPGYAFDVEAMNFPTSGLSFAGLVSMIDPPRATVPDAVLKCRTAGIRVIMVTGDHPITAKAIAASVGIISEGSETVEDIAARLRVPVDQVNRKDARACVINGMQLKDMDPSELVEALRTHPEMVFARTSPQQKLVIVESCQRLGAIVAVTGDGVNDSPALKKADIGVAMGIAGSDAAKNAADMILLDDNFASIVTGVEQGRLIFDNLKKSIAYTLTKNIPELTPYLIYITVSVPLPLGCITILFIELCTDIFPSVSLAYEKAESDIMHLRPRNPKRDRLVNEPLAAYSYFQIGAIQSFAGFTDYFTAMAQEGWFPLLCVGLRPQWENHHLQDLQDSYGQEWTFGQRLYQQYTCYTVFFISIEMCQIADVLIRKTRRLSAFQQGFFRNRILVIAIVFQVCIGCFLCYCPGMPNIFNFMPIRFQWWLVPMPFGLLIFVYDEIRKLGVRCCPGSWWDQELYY
T1 sequence (P18434 whole entry partner): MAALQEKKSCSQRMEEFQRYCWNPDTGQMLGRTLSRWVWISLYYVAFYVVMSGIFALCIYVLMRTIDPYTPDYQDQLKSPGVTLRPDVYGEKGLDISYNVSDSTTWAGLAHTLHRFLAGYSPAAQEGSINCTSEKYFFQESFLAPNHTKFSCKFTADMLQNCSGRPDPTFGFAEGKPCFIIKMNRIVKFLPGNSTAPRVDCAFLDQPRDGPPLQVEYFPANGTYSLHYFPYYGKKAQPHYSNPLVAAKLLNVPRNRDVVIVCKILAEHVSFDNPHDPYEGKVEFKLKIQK
Nature of the experiment: Measurement of inhibitory effects on proton pump (H+/K+-ATPase) activities. It is filed as biochemical. To be noted: hog gastric vesicles, K+-specific H+/K+-ATPase activity, Tris-HCl buffer pH 7.4, 37° C. for 40 minutes, malachite green Pi readout. The procedure, abridged:
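Hog gastric vesicles in 60 mmol/l Tris-HCl pH 7.4 with 0.5% DMSO were treated with compounds at room temperature; reaction was started with 10 μl of 10 mmol/l ATP stock. Released Pi was read at 570 nm, K+-specific activity taken as the ±K+ difference. IC50 from 4-parameter logistic fit.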

As usually defined, the inhibition in vivo is the drop in the measured response relative to a control, in per cent. Read a low inhibition in vivo as a response near the control. As usually defined, the IC50 is the concentration that inhibits the measured activity by half. High values mean a need for much substance, low ones inhibition by little substance. Take `CNCc1cn(S(=O)(=O)c2cccc(OC(F)F)c2)c2cc(Nc3ccc(OC)nc3Cl)ccc12` [Example 182, N-(2-chloro-6-methoxypyridin-3-yl)-1-((3-(difluoromethoxy)phenyl)sulfonyl)-3-((methylamino)methyl)-1H-indol-6-amine hydrochloride]: in experiment [1], at 3 mg/kg the inhibition in vivo was 44%. Moreover, in experiment [2], the IC50 was 390 nM.

Compound `CNCc1cn(S(=O)(=O)c2cccc(F)c2)c2cc(Nc3ccc(OC)nc3Cl)ccc12` [Example 144, N-(2-chloro-6-methoxypyridin-3-yl)-1-((3-fluorophenyl)sulfonyl)-3-((methylamino)methyl)-1H-indol-6-amine hydrochloride] returned an inhibition in vivo at 3 mg/kg in experiment [1] of 53%. Moreover, in experiment [2], 380 nM corresponded to half-maximal inhibition (IC50).

With `CNCc1cn(S(=O)(=O)c2cccnc2)c2cc(Nc3ccc(Cl)nc3OC)ccc12` [Example 120, N-(6-chloro-2-methoxypyridin-3-yl)-3-((methylamino)methyl)-1-(pyridin-3-ylsulfonyl)-1H-indol-6-amine hydrochloride], in experiment [1], 3 mg/kg produced 46% inhibition in vivo. In experiment [2], this compound gave an IC50 of 420 nM.

In the case of `CNCc1cn(S(=O)(=O)c2cccc(F)c2)c2cc(Nc3ccc(OC(F)(F)F)cc3OC)ncc12` [Example 356, 1-((3-fluorophenyl)sulfonyl)-N-(2-methoxy-4-(trifluoromethoxy)phenyl)-3-((methylamino)methyl)-1H-pyrrolo[3,2-c]pyridin-6-amine hydrochloride], the inhibition in vivo at 3 mg/kg in experiment [1] worked out at 63%. In experiment [2], this compound registered a half-inhibitory concentration (IC50) of 2000 nM.

`CNCc1cn(S(=O)(=O)c2cccnc2)c2cc(Nc3ccc(Cl)cc3Cl)ccc12` [Example 29, N-(2,4-dichlorophenyl)-3-((methylamino)methyl)-1-(pyridin-3-ylsulfonyl)-1H-indol-6-amine hydrochloride]: 3 mg/kg produced 44% inhibition in vivo in experiment [1]. The 50% inhibitory concentration (IC50) in experiment [2] stood at 130 nM.

Regarding `CNCc1cn(S(=O)(=O)c2cccnc2)c2cc(Nc3cccnc3OC)ccc12` [Example 108, N-(2-methoxypyridin-3-yl)-3-((methylamino)methyl)-1-(pyridin-3-ylsulfonyl)-1H-indol-6-amine hydrochloride], the inhibition in vivo at 3 mg/kg in experiment [1] worked out at 49%. This compound also showed an IC50 in experiment [2] of 1590 nM.

With `CNCc1cn(S(=O)(=O)c2cccnc2)c2cc(Nc3cc(F)c(C)cc3F)ccc12` [Example 72, N-(2,5-difluoro-4-methylphenyl)-3-((methylamino)methyl)-1-(pyridin-3-ylsulfonyl)-1H-indol-6-amine hydrochloride], the inhibition in vivo at 3 mg/kg in experiment [1] was 49%. In experiment [2], this compound displayed an IC50 of 610 nM.

With `CNCc1cn(S(=O)(=O)c2cncc(F)c2)c2cc(Nc3ccc(F)cc3C)ccc12` [Example 212, N-(4-fluoro-2-methylphenyl)-1-((5-fluoropyridin-3-yl)sulfonyl)-3-((methylamino)methyl)-1H-indol-6-amine hydrochloride], testing at 3 mg/kg in experiment [1] gave an inhibition in vivo of 56%. For the same compound, the half-inhibitory concentration (IC50) in experiment [2] was 180 nM.

In experiment [1], `CNCc1cn(S(=O)(=O)c2cccnc2)c2cc(Nc3ccc(OC(F)(F)F)cc3OC)ccc12` [Example 56, N-(2-methoxy-4-(trifluoromethoxy)phenyl)-3-((methylamino)methyl)-1-(pyridin-3-ylsulfonyl)-1H-indol-6-amine hydrochloride] came in with an inhibition in vivo at 3 mg/kg of 82%. This compound also gave an IC50 in experiment [2] of 460 nM.

For the compound `CNCc1cn(S(=O)(=O)c2cccnc2)c2cc(Nc3ccc(C)cc3Cl)ccc12` [Example 22, N-(2-chloro-4-methylphenyl)-3-((methylamino)methyl)-1-(pyridin-3-ylsulfonyl)-1H-indol-6-amine], the inhibition in vivo at 3 mg/kg in experiment [1] is 48%. The IC50 in experiment [2] was 210 nM.

For the compound `CNCc1cn(S(=O)(=O)c2cncc(F)c2)c2cc(Nc3ccc(C(F)(F)F)nc3Cl)ccc12` [Example 218, N-(2-chloro-6-(trifluoromethyl)pyridin-3-yl)-1-((5-fluoropyridin-3-yl)sulfonyl)-3-((methylamino)methyl)-1H-indol-6-amine hydrochloride], 3 mg/kg produced 49% inhibition in vivo in experiment [1]. This compound displayed an IC50 in experiment [2] of 2920 nM.

As to `CNCc1cn(S(=O)(=O)c2cccnc2)c2cc(Nc3ccc(C(F)(F)F)cc3Cl)ccc12` [Example 34, N-(2-chloro-4-(trifluoromethyl)phenyl)-3-((methylamino)methyl)-1-(pyridin-3-ylsulfonyl)-1H-indol-6-amine hydrochloride], at 3 mg/kg the inhibition in vivo in experiment [1] was 45%. The compound also had an IC50 in experiment [2] of 390 nM.

In the case of `CNCc1cn(S(=O)(=O)c2cncc(F)c2)c2cc(Nc3ccc(OC(F)(F)F)cc3OC)ccc12` [Example 216, 1-((5-fluoropyridin-3-yl)sulfonyl)-N-(2-methoxy-4-(trifluoromethoxy)phenyl)-3-((methylamino)methyl)-1H-indol-6-amine hydrochloride], in experiment [1], 3 mg/kg produced 69% inhibition in vivo. This compound showed an IC50 in experiment [2] of 1500 nM.

In turn, `CNCc1cn(S(=O)(=O)c2cccnc2)c2cc(Nc3ccnc(Cl)c3Br)ccc12` [Example 133, N-(3-bromo-2-chloropyridin-4-yl)-3-((methylamino)methyl)-1-(pyridin-3-ylsulfonyl)-1H-indol-6-amine hydrochloride] registered an inhibition in vivo at 3 mg/kg in experiment [1] of 40%. This compound came in with an IC50 in experiment [2] of 770 nM.

The compound `CNCc1cn(S(=O)(=O)c2cncc(F)c2)c2cc(Nc3ccc(OC)cc3OC(F)(F)F)ccc12` [Example 214, 1-((5-fluoropyridin-3-yl)sulfonyl)-N-(4-methoxy-2-(trifluoromethoxy)phenyl)-3-((methylamino)methyl)-1H-indol-6-amine hydrochloride] yielded an inhibition in vivo at 3 mg/kg in experiment [1] of 75%. Further, in experiment [2], the 50% inhibitory concentration (IC50) was 1690 nM.

The compound `CNCc1cn(S(=O)(=O)c2cccc(C)c2)c2cc(Nc3ccc(C)cc3F)ccc12` [Example 226, N-(2-fluoro-4-methylphenyl)-3-((methylamino)methyl)-1-(m-tolylsulfonyl)-1H-indol-6-amine hydrochloride] returned an inhibition in vivo at 3 mg/kg in experiment [1] of 44%. Moreover, in experiment [2], the half-maximal inhibitory concentration (IC50) was determined as 1160 nM.

`CNCc1cn(S(=O)(=O)c2cccnc2)c2cc(Nc3ccc(OC(F)(F)F)cc3C)ccc12` [Example 53, N-(2-methyl-4-(trifluoromethoxy)phenyl)-3-((methylamino)methyl)-1-(pyridin-3-ylsulfonyl)-1H-indol-6-amine hydrochloride] yielded an inhibition in vivo at 3 mg/kg in experiment [1] of 45%. It took 490 nM to reach half-maximal inhibition in experiment [2] (IC50).

In the case of `CNCc1cn(S(=O)(=O)c2cccc(F)c2)c2cc(Nc3ccc(Cl)cc3Cl)cnc12` [Example 342, N-(2,4-dichlorophenyl)-1-((3-fluorophenyl)sulfonyl)-3-((methylamino)methyl)-1H-pyrrolo[3,2-b]pyridin-6-amine hydrochloride], the inhibition in vivo at 3 mg/kg in experiment [1] turned out to be 41%. Moreover, in experiment [2], the midpoint of inhibition, the IC50, lay at 400 nM.

As to `CNCc1cn(S(=O)(=O)c2cccnc2)c2cc(Nc3ccc(C(F)(F)F)nc3Cl)ccc12` [Example 125, N-(2-chloro-6-(trifluoromethyl)pyridin-3-yl)-3-((methylamino)methyl)-1-(pyridin-3-ylsulfonyl)-1H-indol-6-amine hydrochloride], testing at 3 mg/kg in experiment [1] gave an inhibition in vivo of 45%. This compound also gave a half-inhibitory concentration (IC50) in experiment [2] of 1060 nM.

On to `CNCc1cn(S(=O)(=O)c2cccnc2)c2cc(Nc3ccc(C)cc3F)ccc12` [Example 1, N-(2-fluoro-4-methylphenyl)-3-((methylamino)methyl)-1-(pyridin-3-ylsulfonyl)-1H-indol-6-amine hydrochloride], for which, in experiment [1], the inhibition in vivo at 3 mg/kg was 58%. 180 nM corresponded to half-maximal inhibition in experiment [2] (IC50).
